Two substances from patent US20090286745A1, “INHIBITION OF ALPHA-SYNUCLEIN AGGREGATION” (Zapaloid Limited, priority 2006, published 2009) can be followed below.

For assay [1], the target named is T1, ASYN (Homo sapiens, UniProt P37840). Kind of assay: Kinetic ThT aggregation assay in 25 mM Tris-Cl pH 7.4 with 100 mg/ml PEG 3350. It is filed as biochemical. The following applies: 50 μM ASYN, 100 μM inhibitor; for inhibition compared to ASYN alone: both buffer conditions (Tris-Cl pH 7.4 and PBS); for ThT signal compared to ASYN (FIG. 11): endpoint, Tris-Cl pH 7.4 at 37° C. with 100 mg/ml PEG 3350. The method, then: (§1) Kinetic ThT assays were performed by adding ThT directly to the sample at time=0. A 2.5 mM ThT stock solution was made up in the buffer that was used in the aggregation experiment, filtered through a […] Millex GV filter and diluted to 62.5 μM by adding 5 μl to final sample volume of 200 μl in a 96-well polypropylene plate. The increase in fluorescence over time as a result of amyloid formation was measured in a Biotek Synergy HT plate reader at 37° C. with shaking. Cut off filters were used for exitation at 440/30 nm and emission at 485/20 nm. Readings were every 10 minutes with shaking for 500 seconds before each reading.
For compounds ZP-0089 to ZP-0094, a kinetic ThT experiment was performed in 25 mM Tris-Cl at 37° C. to test the inhibition properties of ZP-0089 to ZP-0094 in Tris-Cl pH 7.4. Each 200 μl sample on the 96 well-plate contained 50 μM ASYN, 100 μM inhibitor and 100 mg/ml PEG along with buffer only and ASYN only controls. Samples were measured in triplicate. ThT fluorescence over time was monitored for 48 hours.

For assay [2], the target named is T1, ASYN. Kind of assay: Kinetic ThT aggregation assay in PBS pH 7.4. The following applies: for endpoint ThT fluorescence / lag phase / lag time / rate of amyloid formation: FIG. 13, PBS, asyn:inhibitor 1:2; for ThT signal compared to ASYN (FIG. 12): endpoint, legend prints Tris-Cl pH 7.4 at 37° C. with 100 mg/ml PEG 3350. It is filed as biochemical. The method, then: The molar ratio of asyn:inhibitor is 1:2. For both, ASYN aggregation inhibition is observed as an increased lag time along with decreased endpoint ThT fluorescence.
as §1
For compounds ZP-0089 to ZP-0094, a kinetic experiment was performed to test the inhibition properties in PBS pH 7.4 as described above. Samples were assayed in triplicate and each sample contained 50 μl of 200 μM ASYN and 50 μl of 400 μM inhibitor was added to 100 μl PBS in a well and mixed to yield a 200 μl sample volume containing 50 μM ASYN and 100 μM inhibitor. Control wells contained either buffer only or ASYN only.

“Also recorded” adds a separate entry of the source. A value given as a limit tells only on which side of the number the result lay.

For L-DOPA-sgvylvg-NH2 [ZP-0089], at ASYN [1], the “inhibition compared to ASYN alone” value is on record as more than 60% and the “ThT signal compared to ASYN (FIG. 11)” value is recorded as “significantly decreased”. Moreover, on ASYN [2], the “endpoint ThT fluorescence” value is on record as “decreased”, the “lag phase / lag time” value is reported as “large increase; also recorded: increased”, the “rate of amyloid formation” value was “decreased” and the “ThT signal compared to ASYN (FIG. 12)” value is reported as “significantly decreased”.
For the substance L-DOPA-gpvntvq-NH2 [ZP-0090], on ASYN [1], the “inhibition compared to ASYN alone” value was more than 30% and the “ThT signal compared to ASYN (FIG. 11)” value was “significantly decreased”. Moreover, on ASYN [2], the “endpoint ThT fluorescence” value was “decreased”, the “lag phase / lag time” value is on record as “increased”, the “rate of amyloid formation” value is “decreased” and the “ThT signal compared to ASYN (FIG. 12)” value is recorded as “significantly decreased”.
